Source: patent US20030229025A1, “Intranasal administration of MC4-R agonists” (Chiron Corporation, priority 2002, published 2003)
Ends that are not written are not given here.

Legend:
ob/ob mice [1] = experiment: Intranasal (IN) efficacy: food intake in fasted ob/ob mice; assay type: in vivo; conditions: Mus musculus, inhaled or nasal, 4 hour, read-out: % Food Intake Reduction at 4 hour
Procedure: Subjects: ob/ob mice; approximately 10 weeks old males; body weight 50-60 grams.
The mice were divided into the following groups:
1) Mice received only vehicle. The vehicle was one of the following: water, 10 mM phosphate buffer, 5% captisol in 10 mM phosphate buffer (see Table 1 for details).
2) Mice received a compound of an embodiment of the present invention at a dosage of 1 mg/kg.
3) Mice received a compound of an embodiment of the present invention at a dosage of 3 mg/kg.
4) Mice received a compound of an embodiment of the present invention at a dosage of 6 mg/kg. n=6-8 animals per group
Note: For compound 1 and compound 2, the 1 mg/kg group was not included.
Animals were fasted overnight (˜16 hours), and an MC4-R agonist compound as described in Tables 1-3 was administered at 8:30 am next day. The administration volume was […]/50 grams of body weight. The animal was gently held by one hand, and the compound solution was delivered by the other hand using a pipette with fine tips. The rate of delivery was such that the full amount was given in not less than 60 seconds to ensure maximal absorption. Pre-weighed food was given to the animals immediately after dosing, and animals had free access to water throughout the study. Food weighing was performed at 1, 2, 3, 4, and 6 hours after dosing. On occasion, food weighing was also taken at the 8 hour or 24 hour time point. Animals were euthanized using carbon dioxide followed by cervical dislocation at the end of the experiment.
Mice were fasted overnight. At 8:30 am the next morning, they were dosed with 25 μl of vehicle or compound solution by intranasal delivery. The solution was delivered using a pipette with protein loading tips. The rate of delivery was such that the full amount was given in not less than 60 seconds. Mice were fed with pre-weighed food immediately after dosing, and had access to water the entire time. Food weight was measured at 1, 2, 3, 4, 6, and 8 hours following the dosing. Mice were euthanized at the end of the study using CO2 followed by cervical dislocation.

ob/ob mice [2] = experiment: as above; assay type: in vivo; conditions: Mus musculus, inhaled or nasal, 4 hour, read-out: % Food Intake Reduction at 4 hour; remark: listed apart in the source
[3] = human subjects, cited from earlier work; for body fat: intranasal administration
[4] = acute intranasal administration; ACTH4-10 1 mg, desacetyl-αMSH 1.68 mg (equimolar); cited from earlier work

`COc1ccc(CCNC(=O)c2ccc(N/C(=N/[C@H]3C[C@H]4C[C@@H]([C@@H]3C)C4(C)C)N3CCN[C@@H](C)C3)cc2)c(F)c1` [Compound 1] gave an inhibition in vivo at 3 mg/kg (ob/ob mice [1]) of 59% and an inhibition in vivo at 6 mg/kg (ob/ob mice [1]) of 91.5%.
In the case of `Cc1ccc(CCc2nc3ccc(N/C(=N\[C@H]4C[C@H]5C[C@@H]([C@@H]4C)C5(C)C)N4CCN[C@@H](C)C4)cc3[nH]2)c(C)c1` [Compound 2], the inhibition in vivo at 3 mg/kg (ob/ob mice [1]) is reported as 23.7% and the inhibition in vivo at 6 mg/kg (ob/ob mice [1]) is reported as 1.7%.
Work on `COc1ccc(CCNC(=O)c2ccc(N/C(=N/[C@H]3C[C@H]4C[C@@H]([C@@H]3C)C4(C)C)N3C[C@@H](C)N[C@@H](C)C3)cc2)c(F)c1` [Compound 3] yielded an inhibition in vivo at 1 mg/kg (ob/ob mice [1]) of -3%, an inhibition in vivo at 3 mg/kg (ob/ob mice [1]) of 63.8% and an inhibition in vivo at 6 mg/kg (ob/ob mice [1]) of 70.3%.
`C[C@@H]1[C@@H](/N=C(\Nc2ccc3[nH]c(CCc4ccc(Cl)cc4Cl)nc3c2)N2CCN[C@@H](C)C2)C[C@H]2C[C@@H]1C2(C)C` [Compound 5] showed an inhibition in vivo at 1 mg/kg (ob/ob mice [1]) of 10.4%, an inhibition in vivo at 3 mg/kg (ob/ob mice [1]) of 53.1% and an inhibition in vivo at 6 mg/kg (ob/ob mice [1]) of 67.3%.
Work on `C[C@@H]1[C@@H](/N=C(\Nc2ccc(NC(=O)CCc3ccc(Cl)cc3Cl)cc2)N2CCN[C@@H](C)C2)C[C@H]2C[C@@H]1C2(C)C` [Compound 6] yielded an inhibition in vivo at 1 mg/kg (ob/ob mice [1]) of -11.9%, an inhibition in vivo at 3 mg/kg (ob/ob mice [1]) of 21.3% and an inhibition in vivo at 6 mg/kg (ob/ob mice [1]) of 57.4%.
`C[C@@H]1[C@@H](/N=C(/Nc2ccc(C(=O)OCCc3ccc(Cl)cc3Cl)cc2)N2C[C@@H](C)N[C@@H](C)C2)C[C@H]2C[C@@H]1C2(C)C` [Compound 7] gave an inhibition in vivo at 1 mg/kg (ob/ob mice [1]) of 23.5%, an inhibition in vivo at 3 mg/kg (ob/ob mice [1]) of 42.7% and an inhibition in vivo at 6 mg/kg (ob/ob mice [1]) of 85.5%.
Compound `CCOC(=O)c1ccc(N/C(=N/[C@H]2C[C@H]3C[C@@H]([C@@H]2C)C3(C)C)N2C[C@@H](C)N[C@@H](C)C2)cc1` [Compound 8] has an inhibition in vivo at 1 mg/kg (ob/ob mice [1]) of 37.8%, an inhibition in vivo at 3 mg/kg (ob/ob mice [1]) of 60% and an inhibition in vivo at 6 mg/kg (ob/ob mice [1]) of 84.1%.
With `COc1ccc(CCNC(=O)c2ccc(N/C(=N/[C@H]3C[C@H]4C[C@@H]([C@@H]3C)C4(C)C)N3C[C@H](C)N[C@@H](C)C3)nc2)c(F)c1` [Compound 9] the inhibition in vivo at 1 mg/kg (ob/ob mice [1]) was 35.2%, the inhibition in vivo at 3 mg/kg (ob/ob mice [1]) was 70.2% and the inhibition in vivo at 6 mg/kg (ob/ob mice [1]) was 69.6%.
For `COc1ccc(CCN2CCc3cc(N/C(=N/[C@H]4C[C@H]5C[C@@H]([C@@H]4C)C5(C)C)N4CCN[C@@H](C)C4)ccc3C2=O)c(F)c1` [Compound 10], the inhibition in vivo at 1 mg/kg (ob/ob mice [1]) was 14.2% and the inhibition in vivo at 3 mg/kg (ob/ob mice [1]) was 39.7%.
`C[C@@H]1[C@@H](/N=C(/Nc2ccc(C(=O)N[C@H](CO)Cc3ccc(Cl)cc3Cl)cn2)N2C[C@@H](C)N[C@@H](C)C2)C[C@H]2C[C@@H]1C2(C)C` [Compound 11] showed an inhibition in vivo at 0.5 mg/kg (ob/ob mice [2]) of -3.8%, an inhibition in vivo at 1 mg/kg (ob/ob mice [1]) of 27.7% and an inhibition in vivo at 3 mg/kg (ob/ob mice [1]) of 82%.
`COc1ccc(CCn2cnc3cc(N/C(=N/[C@H]4C[C@H]5C[C@@H]([C@@H]4C)C5(C)C)N4CCN[C@@H](C)C4)ccc3c2=O)c(F)c1` [Compound 12] showed an inhibition in vivo at 0.5 mg/kg (ob/ob mice [2]) of 6%, an inhibition in vivo at 1 mg/kg (ob/ob mice [1]) of 22.6% and an inhibition in vivo at 3 mg/kg (ob/ob mice [1]) of 47.2%.
For “MSH/ACTH4-10: melanocyte stimulating hormone/adrenocorticotropin4-10; behaviorally active fragment of ACTH (MEHFRWG; Corticotropin; UniProt P01189 141-147, looked up, fragment)”, the “plasma leptin levels and insulin levels” value ([3]; after intranasal administration) is given as “decreased”, the body fat [3] is given as “reduced body fat” and the “processing negativity (PN) of the ERP over frontal and central cortical areas” value [4] is given as “reduced the processing negativity”.
In the case of “desacetyl-αMSH: melanocortin peptide intranasally administered in the cited studies of Fehm et al. and Smolnik et al. (SYSMEHFRWGKPV; ends and bridges not checked; UniProt P01189 138-150, looked up)”, the body fat [3] is given as “nonsignificant” and the “processing negativity (PN) of the ERP over frontal and central cortical areas” value [4] is given as “ineffective”.
